Measurements: publication PMC5845353, “The selective cathepsin K inhibitor MIV-711 attenuates joint pathology in experimental animal models of osteoarthritis” (Journal of Translational Medicine, 2018)

How the values were obtained:
[1] = target: rabbit cathepsin K enzyme; set-up: method as in PMID 29743078; settings: read-out: Ki against rabbit cathepsin K enzyme; cited from earlier work
Knee OA patients = settings: once daily treatment for 6 months; cited from earlier work
[2] = tested on: cartilage degradation biomarker CTX-II; test: Urinary CTX-II (cartilage degradation biomarker) in ACLT rabbits; format: in vivo, rabbit
Experimental: (§1) Starting 1 week after sham operation or ACLT, animals were dosed daily for 7 weeks by oral gavage with either MIV-711 (synthesized by Medivir and given as a suspension in 1% Methocel A4C in water) or vehicle (1% Methocel A4C in water) at a dose volume of 4 mL/kg. The four treatment groups (n = 7 in each group) were: (1) sham + vehicle; (2) ACLT + vehicle; (3) ACLT + MIV-711, 30 µmol/kg (low dose) and (4) ACLT + MIV-711, 100 µmol/kg (high dose).
Urine was collected in the morning from all animals for biomarker measurements before surgery, before dosing on Day 1, Day 10 and during Week 4 and Week 7. The urine was stored frozen (− 70 to − 80 °C) until analysis.
In rabbits, conventional CTX-I assays to assess bone resorption cannot be used due to species differences. Instead, urinary helical peptide (HP-1) concentrations were measured in rabbits using the MicroVue Helical Peptide kit (Ref: 8022) from Quidel (San Diego, CA) according to the instructions supplied by the manufacturer. In dogs, urinary levels of C-terminal telopeptide of collagen type I (CTX-I) were measured using a commercially available kit (Urine BETA CrossLaps ELISA, Ref: AC-05F1, IDS Nordic Bioscience Diagnostics A/S). In rabbits and dogs, urinary concentrations of C-terminal telopeptide of collagen type II (CTX-II) were measured using the Urine CartiLaps EIA kit (Ref: AC-10F1) from Immunodiagnostics Systems (IDS, Herlev, Denmark) according to the instructions supplied by the manufacturer. In dogs, CTX-II levels were also measured in synovial fluid. Before ELISA analysis, 95 µL of synovial fluid was mixed with 5 µL of hyaluronidase (100 U/mL, Sigma, H-3884). The mixture was incubated overnight at 35 °C. The mixture was then used to measure CTX-II levels (Serum Pre-Clinical CartiLaps ELISA, Ref: AC-08F1, IDS Nordic Bioscience Diagnostics A/S). The creatinine levels in urine were determined at Swedish University of Agricultural Sciences (Uppsala, Sweden), using the enzymatic assay (Cat No. 8L24-01) on the Abbott system Architect c4000.

[3] = tested on: rabbits subjected to anterior cruciate ligament transection (ACLT); test: Rabbit ACLT study, contrast-enhanced µCT of articular cartilage; format: in vivo
Text: The animals were acquired following review and approval by the Institutional Animal Care and Use Committee (IACUC) at Numira (Salt Lake City, UT). The protocol was also reviewed and approved by the IACUC at Ibex Preclinical Research Inc. (Logan, UT). Male, New Zealand White rabbits (n = 32) were purchased from the Western Oregon Rabbit Co. (Philomath, OR). The animals were approximately 9 months old, weighed 3.7–4.5 kg at the start of the experiment and were randomized into four treatment groups based on body weight.
Pre-operative butorphanol (0.5–1.0 mg/kg, i.m.) for analgesia and glycopyrrolate (~ 0.1 mg/kg i.m.) were administered up to 15 min prior to induction. Anesthesia was induced by a mixture of ketamine (20–40 mg/kg, i.m.) and xylazine (5–10 mg/kg, i.m.), followed by placement of an endotracheal tube. General anesthesia was maintained with isoflurane. Perioperative cefazolin (40 mg/kg, i.v.) was administered, and […] (0.2 mg/kg, i.v.) was administered to reverse the effects of xylazine after endotracheal intubation was complete. A fentanyl patch (25 µg/h) was placed on a clipped area of the skin to provide post-operative analgesia. An incision of 1.5–2.5 cm was made in the skin over the medial side of the right knee under aseptic conditions. The patella was dislocated laterally and the knee placed in full flexion. The anterior cruciate ligament (ACL) was visualized and transected with an appropriate blade. In sham animals, the ACL was visualized but not transected. The joint was irrigated with sterile saline and closed. The muscle and skin were closed with suture and/or surgical glue. Butorphanol (0.5–1 mg/kg, i.m.) was administered after extubation to provide supplemental analgesia. The animals were then individually housed in stainless steel or plastic cages.
as §1
Femora and tibias from all animals were subjected to µCT scanning without and with contrast reagent, to visualize bone and cartilage, respectively. Samples were scanned on a high-resolution, volumetric µCT scanner (μCT40, ScanCo Medical, Zurich, CH). The image data was acquired with the following parameters: 36 μm isotropic voxel resolution at 300 ms exposure time, 2000 views and 1 frame per view. Each sample was scanned twice, once for acquiring bone data and once for soft tissue data. After the bone scans, the knees were stained using hexabrix for contrast-enhanced imaging of the cartilage. The µCT-generated DICOM files were used to analyze the samples and to create volume renderings of the regions of interest (ROI). The raw data files were converted into a file format compatible with the segmentation software VHLab (Numira). VHLab was used for segmenting out the regions of interest (osteophyte, cartilage, and subchondral bone) for the femur and tibia of each sample. A region spanning 9 mm of the articulating surface of the femur and 6.5 mm of the tibia was selected for segmenting out the cartilage and subchondral bone in the anterior–posterior direction. After the segmentation process, the voxel count associated with each of the regions of interest was calculated using VHLab. The voxel count was then multiplied by the cubic voxel resolution to obtain volume measurements for the different ROI. Cartilage thickness was calculated using SCIRun (Scientific Computing and Imaging Institute, University of Utah). The distance from the bone to the outer surface of the articulating cartilage was calculated. An image was generated that translates the distances into a color map for viewing the thickness along the length of the cartilage. […]

C#C[C@@H]1CN(C(=O)[C@H](CC(C)C)NC(=O)c2ccc(-c3nc(N4CCN(C)CC4)sc3F)cc2)[C@@H]2C(=O)CO[C@H]12 [MIV-711]
Ki [1]: 3.3 nM
benefit on joint structure by MRI compared to placebo (Knee OA patients): significantly lower increases in bone area and cartilage thinning
CTX-II levels decreased by up to, vs ACLT vehicle controls ([2]; ACLT rabbits, over doses 30 and 100 µmol/kg and time points): up to 74%
urinary CTX-II levels reduced by, vs ACLT rabbits treated with vehicle ([2]; after 4 weeks, 30 µmol/kg (p > 0.05)): 38%
urinary CTX-II levels reduced by, vs ACLT rabbits treated with vehicle ([2]; after 4 weeks, 100 µmol/kg): 49%
urinary CTX-II levels reduced by, vs ACLT rabbits treated with vehicle ([2]; after 7 weeks, 30 µmol/kg (p > 0.05)): 14%
urinary CTX-II levels reduced by, vs ACLT rabbits treated with vehicle ([2]; after 7 weeks, 100 µmol/kg): 52%
urinary CTX-II levels reduced by, vs ACLT rabbits treated with vehicle ([2]; after 10 days of dosing, 30 µmol/kg): 53%
urinary CTX-II levels reduced by, vs ACLT rabbits treated with vehicle ([2]; after 10 days of dosing, 100 µmol/kg): 74%
Cartilage Thickness, Lateral ([3]; Femur, high dose 100 µmol/kg): 251 ± 12 µm
Cartilage Thickness, Medial ([3]; Femur, high dose 100 µmol/kg): 306 ± 12 µm
Cartilage Thickness, Total ([3]; Femur, high dose 100 µmol/kg): 278 ± 11 µm
Cartilage Volume, Lateral ([3]; Femur, high dose 100 µmol/kg): 23.0 ± 1.1 mm^3
Cartilage Volume, Medial ([3]; Femur, high dose 100 µmol/kg): 27.2 ± 1.6 mm^3
Cartilage Volume, Total ([3]; Femur, high dose 100 µmol/kg): 50.2 ± 2.2 mm^3
Cartilage Thickness, Lateral ([3]; Femur, low dose 30 µmol/kg): 257 ± 13 µm
Cartilage Thickness, Medial ([3]; Femur, low dose 30 µmol/kg): 310 ± 18 µm
Cartilage Thickness, Total ([3]; Femur, low dose 30 µmol/kg): 283 ± 15 µm
Cartilage Volume, Lateral ([3]; Femur, low dose 30 µmol/kg): 23.1 ± 1.1 mm^3
Cartilage Volume, Medial ([3]; Femur, low dose 30 µmol/kg): 27.5 ± 2.6 mm^3
Cartilage Volume, Total ([3]; Femur, low dose 30 µmol/kg): 50.6 ± 3.5 mm^3
Cartilage Thickness, Lateral ([3]; Tibia, high dose 100 µmol/kg): 369 ± 24 µm
Cartilage Thickness, Medial ([3]; Tibia, high dose 100 µmol/kg): 539 ± 25 µm
Cartilage Thickness, Total ([3]; Tibia, high dose 100 µmol/kg): 445 ± 22 µm
Cartilage Volume, Lateral ([3]; Tibia, high dose 100 µmol/kg): 21.6 ± 2.0 mm^3
Cartilage Volume, Medial ([3]; Tibia, high dose 100 µmol/kg): 25.3 ± 1.2 mm^3
Cartilage Volume, Total ([3]; Tibia, high dose 100 µmol/kg): 46.9 ± 3.1 mm^3
Cartilage Thickness, Lateral ([3]; Tibia, low dose 30 µmol/kg): 349 ± 18 µm
Cartilage Thickness, Medial ([3]; Tibia, low dose 30 µmol/kg): 533 ± 26 µm
Cartilage Thickness, Total ([3]; Tibia, low dose 30 µmol/kg): 432 ± 20 µm
Cartilage Volume, Lateral ([3]; Tibia, low dose 30 µmol/kg): 19.6 ± 1.3 mm^3
Cartilage Volume, Medial ([3]; Tibia, low dose 30 µmol/kg): 24.9 ± 1.5 mm^3
Cartilage Volume, Total ([3]; Tibia, low dose 30 µmol/kg): 44.5 ± 2.6 mm^3
